From ChEMBL document CHEMBL4376816, “Discovery of the Oral Leukotriene C4 Synthase Inhibitor (1S,2S)-2-({5-[(5-Chloro-2,4-difluorophenyl)(2-fluoro-2-methylpropyl)amino]-3-methoxypyrazin-2-yl}carbonyl)cyclopropanecarboxylic Acid (AZD9898) as a New Treatment for Asthma” (J Med Chem, 2019)
Calls of active or inactive are those of the source. The rule behind the calls is not given here.

Columns and labels:
[1] = Fraction unbound in Beagle dog plasma by equilibrium dialysis based LC-MS analysis; format: ADME, cell-free, Canis lupus familiaris
[2] = Fraction unbound in human plasma by equilibrium dialysis based LC-MS analysis; format: ADME, cell-free
[3] = Effective half life in cynomolgus monkey at 1 mg/kg, iv or 2 mg/kg, po after 48 hrs; format: ADME, organism-based, Macaca fascicularis; conditions: in vivo, read-out: t1/2eff (converted)
[4] = Effective half life in Han Wistar rat at 0.5 mg/kg, iv or 1 mg/kg, po after 24 hrs; format: ADME, organism-based; conditions: in vivo, read-out: t1/2eff (converted)
[5] = Oral bioavailability in Beagle dog at 2 mg/kg via gavage after 48 hrs; format: ADME, organism-based, Canis lupus familiaris; conditions: in vivo
[6] = Octanol/Sodium phosphate buffer partition coefficient, log D of compound at pH 7.4 at 1 mg incubated for overnight under shaking condition by LC-MS/MS analysis; format: physicochemical
[7] = tested on: Rattus norvegicus; assay: In vivo inhibition of LTC4S in po dosed Sprague-Dawley rat assessed as unbound drug concentration required for inhibition of calcium ionophore A23187-induced cysteinyl leukotrienes production in BAL fluid by LC-MS/MS analysis; format: functional
[8] = Fraction unbound in cynomolgus monkey plasma by equilibrium dialysis based LC-MS analysis; format: ADME, cell-free, Macaca fascicularis
[9] = Oral bioavailability in cynomolgus monkey at 2 mg/kg after 48 hrs; format: ADME, organism-based, Macaca fascicularis; conditions: in vivo
[10] = Clearance in Han Wistar rat at 0.5 mg/kg, iv or 1 mg/kg, po after 24 hrs; format: ADME, organism-based; conditions: in vivo
[11] = Clearance in Beagle dog at 1 mg/kg, iv infusion or 2 mg/kg, po via gavage after 48 hrs; format: ADME, organism-based, Canis lupus familiaris; conditions: in vivo
[12] = Clearance in cynomolgus monkey at 1 mg/kg, iv or 2 mg/kg, po after 48 hrs; format: ADME, organism-based, Macaca fascicularis; conditions: in vivo
[13] = Volume of distribution at steady state in Han Wistar rat at 0.5 mg/kg, iv or 1 mg/kg, po after 24 hrs; format: ADME, organism-based; conditions: in vivo, read-out: Vdss
[14] = Displacement of [3H]-GABA/[3]-muscimol from GABA gated chloride channel in Sprague-Dawley rat cortical synoptic membranes by liquid scintillation analysis
[15] = target: T1, Solute carrier organic anion transporter family member 1B1 (Homo sapiens, UniProt Q9Y6L6); assay: Inhibition of OATP1B1 (unknown origin) expressed in HEK293 cells measured after 0.5 to 20 mins by scintillation counting analysis; format: ADME, cell-based
T1 sequence (Q9Y6L6 whole entry): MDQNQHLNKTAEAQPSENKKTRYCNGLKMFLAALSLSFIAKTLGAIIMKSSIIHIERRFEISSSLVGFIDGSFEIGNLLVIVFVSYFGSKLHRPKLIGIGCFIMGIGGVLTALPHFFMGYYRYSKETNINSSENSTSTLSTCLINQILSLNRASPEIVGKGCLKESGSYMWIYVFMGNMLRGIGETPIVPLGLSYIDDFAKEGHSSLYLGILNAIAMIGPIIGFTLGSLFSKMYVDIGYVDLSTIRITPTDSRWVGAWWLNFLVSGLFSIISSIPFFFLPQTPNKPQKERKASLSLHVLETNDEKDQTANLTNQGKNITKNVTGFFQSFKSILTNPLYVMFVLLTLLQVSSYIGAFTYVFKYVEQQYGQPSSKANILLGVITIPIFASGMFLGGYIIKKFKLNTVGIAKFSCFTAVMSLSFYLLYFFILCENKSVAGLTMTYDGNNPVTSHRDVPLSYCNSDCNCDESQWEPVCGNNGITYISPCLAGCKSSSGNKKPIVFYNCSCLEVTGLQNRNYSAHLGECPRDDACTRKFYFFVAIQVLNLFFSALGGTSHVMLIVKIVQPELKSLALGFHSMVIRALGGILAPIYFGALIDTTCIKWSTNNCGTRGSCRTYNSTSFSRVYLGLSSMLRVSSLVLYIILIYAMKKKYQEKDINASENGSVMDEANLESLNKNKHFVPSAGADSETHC

[16] = Cmax in po dosed rat at NOAEL measured after 7 days; format: ADME, organism-based; set-up: route oral; conditions: in vivo
[17] = AUC in po dosed rat at NOAEL measured after 7 days; format: ADME, organism-based; conditions: in vivo
[18] = target: Cytochrome P450 3A4 (Homo sapiens, UniProt P08684); assay: Inhibition of recombinant human CYP3A4 expressed in Escherichia coli using coumarin based substrate by fluorescence assay; format: ADME
Sequence of Cytochrome P450 3A4 (P08684 whole entry): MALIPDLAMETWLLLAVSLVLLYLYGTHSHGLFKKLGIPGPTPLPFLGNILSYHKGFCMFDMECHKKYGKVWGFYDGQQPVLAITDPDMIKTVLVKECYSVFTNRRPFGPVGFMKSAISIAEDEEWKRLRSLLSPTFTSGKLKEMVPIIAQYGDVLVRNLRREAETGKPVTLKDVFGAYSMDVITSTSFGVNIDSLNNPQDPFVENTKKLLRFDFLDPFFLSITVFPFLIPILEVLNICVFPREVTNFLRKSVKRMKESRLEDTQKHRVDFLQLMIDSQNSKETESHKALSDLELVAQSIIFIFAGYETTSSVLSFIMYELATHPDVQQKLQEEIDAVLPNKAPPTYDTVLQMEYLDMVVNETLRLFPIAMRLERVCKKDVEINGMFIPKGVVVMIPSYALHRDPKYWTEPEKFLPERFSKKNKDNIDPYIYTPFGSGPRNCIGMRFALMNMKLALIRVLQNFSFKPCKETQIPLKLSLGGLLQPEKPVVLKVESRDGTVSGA

[19] = Toxicity in rat assessed as liver hypertrophy at 100 mg/kg, po after 7 days; format: organism-based; conditions: in vivo
[20] = target: T2, Leukotriene C4 synthase (Homo sapiens) (UniProt Q16873); assay: Inhibition of LTC4S in asthmatic human whole blood assessed as inhibition of calcium ionophore A23187 stimulated cysteinyl leukotrienes production preincuabted for 30 mins followed by calcium ionophore stimulation and measured after 10 mins by LC-MS analysis; format: tissue-based
T2 sequence (whole entry): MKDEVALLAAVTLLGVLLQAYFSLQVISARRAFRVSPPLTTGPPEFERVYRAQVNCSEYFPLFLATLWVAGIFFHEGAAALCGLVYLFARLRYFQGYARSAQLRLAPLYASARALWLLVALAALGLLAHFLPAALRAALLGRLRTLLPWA

[21] = tested on: Blood; assay: Effect on arachidonic acid pathway in calcium ionophore A23187-stimulated healthy human whole blood assessed as increase in lipoxin level preincubated for 30 mins followed by calcium ionophore A23187 stimulation and measured after 60 mins by LC-MS analysis; format: functional, tissue-based
[22] = target: Sodium channel protein type 5 subunit alpha (Homo sapiens, UniProt Q14524); assay: Inhibition of human Nav1.5 expressed in CHOK1 cells at < 33 uM at -90 mV holding potential by Ionwork-based analysis; format: cell-based
Sequence of Sodium channel protein type 5 subunit alpha (Q14524 whole entry): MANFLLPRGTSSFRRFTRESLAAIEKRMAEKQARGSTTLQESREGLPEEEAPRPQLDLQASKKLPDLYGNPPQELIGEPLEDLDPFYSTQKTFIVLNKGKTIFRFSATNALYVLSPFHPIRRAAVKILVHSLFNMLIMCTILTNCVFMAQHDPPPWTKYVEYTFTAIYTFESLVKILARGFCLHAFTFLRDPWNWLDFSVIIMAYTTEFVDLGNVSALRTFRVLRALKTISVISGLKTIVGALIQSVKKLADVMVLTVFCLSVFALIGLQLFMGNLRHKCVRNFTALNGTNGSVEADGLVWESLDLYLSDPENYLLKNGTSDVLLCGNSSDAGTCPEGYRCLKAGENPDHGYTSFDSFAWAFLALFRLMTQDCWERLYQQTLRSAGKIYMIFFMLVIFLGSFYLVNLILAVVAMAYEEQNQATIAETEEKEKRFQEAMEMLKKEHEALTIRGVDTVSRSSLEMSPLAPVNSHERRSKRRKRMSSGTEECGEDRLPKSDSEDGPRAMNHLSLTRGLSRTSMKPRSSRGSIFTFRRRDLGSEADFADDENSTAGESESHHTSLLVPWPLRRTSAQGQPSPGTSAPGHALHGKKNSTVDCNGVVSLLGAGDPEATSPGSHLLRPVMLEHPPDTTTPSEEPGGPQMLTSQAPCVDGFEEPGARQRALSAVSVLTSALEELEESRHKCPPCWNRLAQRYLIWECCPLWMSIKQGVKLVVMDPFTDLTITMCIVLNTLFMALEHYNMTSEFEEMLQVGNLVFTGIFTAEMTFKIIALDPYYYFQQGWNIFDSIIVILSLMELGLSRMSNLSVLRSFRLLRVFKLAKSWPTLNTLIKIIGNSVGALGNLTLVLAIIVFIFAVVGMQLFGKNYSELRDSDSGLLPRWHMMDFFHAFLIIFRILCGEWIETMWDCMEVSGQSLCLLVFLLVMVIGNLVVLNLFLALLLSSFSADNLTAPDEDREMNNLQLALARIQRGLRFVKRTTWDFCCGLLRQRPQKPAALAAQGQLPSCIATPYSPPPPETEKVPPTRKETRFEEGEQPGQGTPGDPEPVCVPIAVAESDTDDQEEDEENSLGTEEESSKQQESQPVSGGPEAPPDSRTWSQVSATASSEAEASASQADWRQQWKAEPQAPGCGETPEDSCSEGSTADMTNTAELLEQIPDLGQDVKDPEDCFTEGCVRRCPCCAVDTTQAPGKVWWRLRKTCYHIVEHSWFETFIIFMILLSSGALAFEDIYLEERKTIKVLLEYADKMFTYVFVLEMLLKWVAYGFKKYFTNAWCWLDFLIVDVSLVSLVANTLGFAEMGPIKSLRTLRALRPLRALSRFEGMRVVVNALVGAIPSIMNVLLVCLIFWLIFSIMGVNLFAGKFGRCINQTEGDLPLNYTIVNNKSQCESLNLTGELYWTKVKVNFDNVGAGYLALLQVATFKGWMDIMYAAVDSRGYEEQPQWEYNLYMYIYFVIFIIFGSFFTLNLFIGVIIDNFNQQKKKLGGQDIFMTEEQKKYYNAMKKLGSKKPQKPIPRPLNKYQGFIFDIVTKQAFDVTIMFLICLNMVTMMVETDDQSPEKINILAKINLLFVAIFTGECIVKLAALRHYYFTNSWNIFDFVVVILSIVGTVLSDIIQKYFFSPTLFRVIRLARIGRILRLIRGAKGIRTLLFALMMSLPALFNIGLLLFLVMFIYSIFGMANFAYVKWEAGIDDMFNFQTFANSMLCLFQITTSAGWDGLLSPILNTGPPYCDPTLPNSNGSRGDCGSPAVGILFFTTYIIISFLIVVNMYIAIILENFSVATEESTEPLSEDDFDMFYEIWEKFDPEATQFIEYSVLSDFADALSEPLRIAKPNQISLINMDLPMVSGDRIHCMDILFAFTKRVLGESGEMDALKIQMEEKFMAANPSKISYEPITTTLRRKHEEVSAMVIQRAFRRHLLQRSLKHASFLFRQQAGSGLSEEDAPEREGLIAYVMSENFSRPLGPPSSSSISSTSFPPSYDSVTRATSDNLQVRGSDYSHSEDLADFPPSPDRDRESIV

[23] = target: Potassium voltage-gated channel subfamily E member 1 (Homo sapiens, UniProt P15382); assay: Inhibition of human minK expressed in CHOK1 cells at < 33 uM at -80 mV holding potential by Ionwork-based analysis; format: cell-based
[24] = Apparent permeability across apical to basolateral side in human Caco2 cells; conditions: Caco-2

fraction unbound [1]: 0.059 | fraction unbound [2]: 0.036 | half-life [3]: 12 h | half-life [4]: 26 h | bioavailability [5]: 100% | logD [6]: 1.1 | fraction unbound [8]: 0.03 | bioavailability [9]: 90% | clearance [10]: 0.138 L/h/kg | clearance [11]: 0.108 L/h/kg | clearance [12]: 0.036 L/h/kg | Vd [13]: 5.3 L/kg | IC50 [14]: > 100 µM | INH [15]: 3.2 µM | IC50 [18]: > 30 µM | inhibition [20]: Active | inhibition (INH) [23]: Not Active | Papp A→B [24]: 610 nm/s
SMILES: COc1nc(N(CC(C)(C)F)c2cc(Cl)c(F)cc2F)cnc1C(=O)[C@H]1C[C@@H]1C(=O)O [AZD-9898]
fEC50 [7]: 34 nM | Cmax at […] [16]: 349 µM | AUC [17]: 4500 µM·h | Activity [19]: Non-Toxic | Activity [21]: Dose-dependent effect | inhibition (INH) [22]: Not Active
